In US8530525B2 (priority 2009, dated 2013):

Columns and labels:
α7 neuronal nAChR = α7 neuronal nAChR (Homo sapiens, UniProt P36544); conditions: cited from earlier work
[1] = in vivo; cited from earlier work
α3β4 = α3β4 (Homo sapiens, UniProt P30926+P32297); conditions: cited from earlier work
[2] = tested on: population spikes (PS) recorded from the CA1 area of the rat hippocampal slice; type: cell-based
[3] = tested on: population spikes (PS) of the hippocampal slice

α7 neuronal nAChR, sequence (P36544 23-502): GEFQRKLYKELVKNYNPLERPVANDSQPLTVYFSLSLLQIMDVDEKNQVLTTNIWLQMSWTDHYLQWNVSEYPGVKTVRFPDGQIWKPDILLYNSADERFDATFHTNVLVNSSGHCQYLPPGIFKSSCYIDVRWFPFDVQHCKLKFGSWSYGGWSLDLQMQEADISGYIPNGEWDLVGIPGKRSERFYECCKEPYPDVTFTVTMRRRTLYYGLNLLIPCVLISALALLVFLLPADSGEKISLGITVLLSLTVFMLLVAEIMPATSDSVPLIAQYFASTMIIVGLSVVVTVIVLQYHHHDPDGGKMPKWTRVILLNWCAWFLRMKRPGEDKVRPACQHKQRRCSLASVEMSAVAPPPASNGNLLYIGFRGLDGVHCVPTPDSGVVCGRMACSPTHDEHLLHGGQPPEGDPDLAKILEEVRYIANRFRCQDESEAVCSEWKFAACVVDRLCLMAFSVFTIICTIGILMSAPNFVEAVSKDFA
α3β4, sequence (P32297 32-505): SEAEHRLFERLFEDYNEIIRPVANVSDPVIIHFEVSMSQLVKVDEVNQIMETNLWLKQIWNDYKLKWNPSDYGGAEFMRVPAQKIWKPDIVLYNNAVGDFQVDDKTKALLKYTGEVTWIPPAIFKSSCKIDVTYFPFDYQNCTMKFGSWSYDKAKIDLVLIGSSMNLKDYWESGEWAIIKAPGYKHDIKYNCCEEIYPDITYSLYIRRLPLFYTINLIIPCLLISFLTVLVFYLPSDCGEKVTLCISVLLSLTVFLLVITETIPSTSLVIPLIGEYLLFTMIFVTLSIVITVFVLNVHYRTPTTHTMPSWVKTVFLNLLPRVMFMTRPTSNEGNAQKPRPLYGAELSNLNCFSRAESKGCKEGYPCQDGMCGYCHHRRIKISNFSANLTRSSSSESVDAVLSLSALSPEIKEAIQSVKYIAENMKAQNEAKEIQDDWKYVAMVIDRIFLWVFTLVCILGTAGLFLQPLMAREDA
α3β4, sequence (P30926 22-498): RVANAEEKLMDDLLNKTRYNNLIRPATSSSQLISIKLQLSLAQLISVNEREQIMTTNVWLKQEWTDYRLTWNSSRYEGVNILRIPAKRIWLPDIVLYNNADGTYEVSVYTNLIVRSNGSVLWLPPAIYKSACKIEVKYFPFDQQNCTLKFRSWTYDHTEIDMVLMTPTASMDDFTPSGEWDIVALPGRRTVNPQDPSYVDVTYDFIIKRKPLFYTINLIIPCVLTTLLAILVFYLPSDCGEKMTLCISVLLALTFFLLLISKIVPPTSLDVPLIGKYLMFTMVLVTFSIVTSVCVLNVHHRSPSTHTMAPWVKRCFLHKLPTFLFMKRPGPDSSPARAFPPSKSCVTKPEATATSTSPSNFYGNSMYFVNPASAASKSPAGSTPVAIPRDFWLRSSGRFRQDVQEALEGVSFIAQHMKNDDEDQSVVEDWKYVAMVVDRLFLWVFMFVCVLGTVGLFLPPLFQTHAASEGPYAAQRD

## CC1=CC(O)CC(C)(O)C=CC(C(C)C)CCC(C)=CCC1 [4R cembranoid, (1S,2E,4R,6R,7E,11E)-cembra-2,7,11-triene-4,6-diol]
α7 neuronal nAChR
  Antagonism of α7 neuronal nAChR: subtype selective antagonist
[1]
  Brain penetration: readily penetrates into the brain
  Metabolism and excretion: promptly metabolized in the liver and excreted as a soluble metabolite
α3β4
  Activity at α3β4 subtypes: little activity

## CCOP(=O)(OCC)Oc1ccc([N+](=O)[O-])cc1 [POX, paraoxon]
[2]
  Maximum inhibition of the PS: ~50%
[2]; read-out: POX IC50 for inhibition of PS
  IC50: ~1000 nM

## CN1[C@@H]2CC[C@H]1C[C@@H](OC(=O)C(CO)c1ccccc1)C2 (stereo partly shown) [atropine]
[3]
  Effect on PS area: did not affect PS area
